{"source": "paper PMC12704303", "about": "“Production of RPSL12-TetR fusion and development of two multiplex methods for simultaneous detection of tetracyclines and aminoglycosides in pork” (Food Chemistry: X, 2025)", "data": [{"test_system": "T1, RPSL12-TetR", "T1 construct": "gene rpsL; single-chain fusion RPSL12 (372 bp) - linker (45 bp) - TetR (636 bp), total 1053 bp, in pET-32a(+), His-tag, expressed in E. coli host, Ni-NTA from soluble supernatant, about 41 kDa", "experiment": "microplate direct competition chemiluminescence, coated fusion protein, STR-ALP tracer", "type": "binding, Escherichia coli", "conditions": "competition with streptomycin-ALP conjugate (RPSL12 part); blank pork extract; 37 °C, 30 min", "description": "microplate direct competition chemiluminescence, coated fusion protein, STR-ALP tracer on RPSL12-TetR", "units": {"IC50": "ng/mL"}, "values": [{"smiles": "NCC[C@H](O)C(=O)N[C@@H]1C[C@H](N)[C@@H](O[C@H]2O[C@H](CN)[C@@H](O)[C@H](O)[C@H]2O)[C@H](O)[C@H]1O[C@H]1O[C@H](CO)[C@@H](O)[C@H](N)[C@H]1O", "note": "[AMK]", "IC50": 5.1}, {"smiles": "CCN[C@@H]1C[C@H](N)[C@@H](O[C@H]2O[C@H](CN)CC[C@H]2N)[C@H](O)[C@H]1O[C@H]1OC[C@](C)(O)[C@H](NC)[C@H]1O", "note": "[ETM]", "IC50": 17}, {"smiles": "CN[C@@H]1[C@@H](O)[C@@H](O[C@@H]2[C@@H](O)[C@H](O[C@H]3O[C@H](CN)[C@@H](O)[C@H](O)[C@H]3O)[C@@H](N)C[C@H]2NC(=O)[C@@H](O)CN)OC[C@]1(C)O", "note": "[ISM]", "IC50": 3.6}, {"smiles": "NC[C@H]1O[C@H](O[C@H]2[C@H](O)[C@@H](O[C@H]3O[C@H](CO)[C@@H](O)[C@H](N)[C@H]3O)[C@H](N)C[C@@H]2N)[C@H](O)[C@@H](O)[C@@H]1O", "note": "[KAN]", "IC50": 6.4}, {"smiles": "CNC[C@@H]1CC[C@@H](N)[C@@H](O[C@H]2[C@H](O)[C@@H](O[C@H]3OC[C@](C)(O)[C@H](NC)[C@H]3O)[C@H](N)C[C@@H]2N)O1", "note": "[MIM]", "IC50": 3.8}, {"smiles": "CCN[C@@H]1C[C@H](N)[C@@H](O[C@H]2OC(CN)=CC[C@H]2N)[C@H](O)[C@H]1O[C@H]1OC[C@](C)(O)[C@H](NC)[C@H]1O", "note": "[NTM]", "IC50": 16}, {"smiles": "NC[C@@H]1O[C@H](O[C@H]2[C@@H](O)[C@H](O[C@@H]3[C@@H](O)[C@H](N)C[C@H](N)[C@H]3O[C@H]3O[C@H](CO)[C@@H](O)[C@H](O)[C@H]3N)O[C@@H]2CO)[C@H](N)[C@@H](O)[C@@H]1O", "note": "[PMM]", "IC50": 5.4}, {"smiles": "CN[C@@H]1[C@H](O)[C@H](NC)[C@H]2O[C@@]3(O)C(=O)C[C@@H](C)O[C@H]3O[C@@H]2[C@H]1O", "note": "[SPM]", "IC50": 9.8}, {"smiles": "CN[C@@H]1[C@H](O[C@H]2[C@H](O[C@H]3[C@H](O)[C@@H](O)[C@H](N=C(N)N)[C@@H](O)[C@@H]3N=C(N)N)O[C@@H](C)[C@]2(O)C=O)O[C@@H](CO)[C@H](O)[C@H]1O", "note": "[STR]", "IC50": 5.1}]}, {"test_system": "T1, RPSL12-TetR", "experiment": "microplate direct competition chemiluminescence, coated fusion protein, MC-HRP tracer", "type": "binding, Escherichia coli", "conditions": "competition with minocycline-HRP conjugate (TetR part); blank pork extract; 37 °C, 30 min", "description": "microplate direct competition chemiluminescence, coated fusion protein, MC-HRP tracer on RPSL12-TetR", "units": {"IC50": "ng/mL"}, "values": [{"smiles": "CN(C)[C@@H]1C(=O)C(C(N)=O)=C(O)[C@@]2(O)C(=O)C3=C(O)c4c(O)ccc(Cl)c4[C@@](C)(O)[C@H]3C[C@@H]12", "note": "[CTC]", "IC50": 0.0344}, {"smiles": "C[C@H]1c2cccc(O)c2C(=O)C2=C(O)[C@]3(O)C(=O)C(C(N)=O)=C(O)[C@@H](N(C)C)[C@@H]3[C@@H](O)[C@@H]21", "note": "[DC]", "IC50": 0.0395}, {"smiles": "CN(C)[C@@H]1C(=O)C(C(N)=O)=C(O)[C@@]2(O)C(=O)C3=C(O)c4c(O)ccc(Cl)c4[C@@H](O)[C@H]3C[C@@H]12", "note": "[DMC]", "IC50": 0.0287}, {"smiles": "CN(C)[C@@H]1C(O)=C(C(=O)NCNCCCC[C@H](N)C(=O)O)C(=O)[C@@]2(O)C(O)=C3C(=O)c4c(O)cccc4[C@@](C)(O)[C@H]3C[C@@H]12", "note": "[LMC]", "IC50": 0.0427}, {"smiles": "CN(C)c1ccc(O)c2c1C[C@H]1C[C@H]3[C@H](N(C)C)C(O)=C(C(N)=O)C(=O)[C@@]3(O)C(O)=C1C2=O", "note": "[MC]", "IC50": 0.0357}, {"smiles": "C=C1c2cccc(O)c2C(O)=C2C(=O)[C@]3(O)C(O)=C(C(N)=O)C(=O)[C@@H](N(C)C)[C@@H]3[C@@H](O)[C@H]12", "note": "[MTC]", "IC50": 0.0418}, {"smiles": "CN(C)[C@@H]1C(=O)C(C(N)=O)=C(O)[C@@]2(O)C(=O)C3=C(O)c4c(O)cccc4[C@@](C)(O)[C@H]3[C@H](O)[C@@H]12", "note": "[OTC]", "IC50": 0.0402}, {"smiles": "CN(C)[C@@H]1C(=O)C(C(N)=O)=C(O)[C@@]2(O)C(=O)C3=C(O)c4c(O)cccc4C[C@H]3C[C@@H]12", "note": "[SC]", "IC50": 0.0378}, {"smiles": "CN(C)[C@@H]1C(=O)C(C(N)=O)=C(O)[C@@]2(O)C(=O)C3=C(O)c4c(O)cccc4[C@@](C)(O)[C@H]3C[C@@H]12", "note": "[TC]", "IC50": 0.038}, {"smiles": "CN(C)c1cc(NC(=O)CNC(C)(C)C)c(O)c2c1C[C@H]1C[C@H]3[C@H](N(C)C)C(=O)C(C(N)=O)=C(O)[C@@]3(O)C(=O)C1=C2O", "note": "[TIC]", "IC50": 0.0414}]}]}
